Data: PubChem BioAssay AID1963436 (Molecular Pharmacology Branch, DTP, NCI, 2024)

Tested on: OVCAR-5 complex spheroid (HUVEC/MSC), viability % T/C
Assay: Anticancer human tumor OVCAR-5 cell line growth inhibition [Asc];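 note: spheroids exposed to agents for 7 days before readout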;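 for viability, T/C: 100% = DMSO vehicle-treated wells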
Settings: for IC50: curve of first compound; for viability, T/C: stronger effect = lower value
Summary of the method: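 Spheroid model: tumor line + HUVEC + hMSC. Single agents and combinations; top conc. at/near clinical Cmax (10 microM if undetermined), half-log dilutions. DMSO stocks at 800-fold test concentration.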

[1] = second compound 0.1 µM, first compound 0.0316 µM
[2] = second compound 0.1 µM, first compound 0.1 µM
[3] = second compound 0.1 µM, first compound 0.316 µM
[4] = second compound 0.1 µM, first compound 1 µM
[5] = second compound 0.316 µM, first compound 0.0316 µM
[6] = second compound 0.316 µM, first compound 0.1 µM
[7] = second compound 0.316 µM, first compound 0.316 µM
[8] = second compound 0.316 µM, first compound 1 µM
[9] = second compound 1 µM, first compound 0.0316 µM
[10] = second compound 1 µM, first compound 0.1 µM
[11] = second compound 1 µM, first compound 0.316 µM
[12] = second compound 1 µM, first compound 1 µM
[13] = second compound 3.16 µM, first compound 0.0316 µM
[14] = second compound 3.16 µM, first compound 0.1 µM
[15] = second compound 3.16 µM, first compound 0.316 µM
[16] = second compound 3.16 µM, first compound 1 µM
[17] = second compound 10 µM, first compound 0.0316 µM
[18] = second compound 10 µM, first compound 0.1 µM
[19] = second compound 10 µM, first compound 0.316 µM
[20] = second compound 10 µM, first compound 1 µM

## C#Cc1c(F)ccc2cc(O)cc(-c3ncc4c(N5CC6CCC(C5)N6)nc(OCC56CCCN5CC(F)C6)nc4c3F)c12 (stereo not given) + Cc1c(S(C)(=O)=O)c(-c2cc(F)cc(N3CCN(c4ccc(NS(=O)(=O)c5ccc(NC(CCN6CCC(C(=O)OCCCP(=O)(O)O)CC6)CSc6ccccc6)c(S(=O)(=O)C(F)(F)F)c5)cc4)CC3)c2)c(-c2ccc(Cl)cc2)n1C(C)C
Second compound 0.1 µM
  IC50: 5.34 µM
Second compound 0.316 µM
  IC50: 4.45 µM
Second compound 1 µM
  IC50: 3.72 µM
Second compound 3.16 µM
  IC50: 2.81 µM
Second compound 10 µM
  IC50: 3.73 µM
[1]
  viability, T/C: 96.7%
[2]
  viability, T/C: 107%
[3]
  viability, T/C: 102%
[4]
  viability, T/C: 78.7%
Second compound 0.1 µM, first compound 3.16 µM
  viability, T/C: 69.3%
Second compound 0.1 µM, first compound 10 µM
  viability, T/C: 30.3%
[5]
  viability, T/C: 91.8%
[6]
  viability, T/C: 98.2%
[7]
  viability, T/C: 87.2%
[8]
  viability, T/C: 80.1%
Second compound 0.316 µM, first compound 3.16 µM
  viability, T/C: 61.1%
Second compound 0.316 µM, first compound 10 µM
  viability, T/C: 24.5%
[9]
  viability, T/C: 89.7%
[10]
  viability, T/C: 107%
[11]
  viability, T/C: 90.1%
[12]
  viability, T/C: 75.9%
Second compound 1 µM, first compound 3.16 µM
  viability, T/C: 56.3%
Second compound 1 µM, first compound 10 µM
  viability, T/C: 21.7%
[13]
  viability, T/C: 84.9%
[14]
  viability, T/C: 99.9%
[15]
  viability, T/C: 96.1%
[16]
  viability, T/C: 69%
Second compound 3.16 µM, first compound 3.16 µM
  viability, T/C: 49.8%
Second compound 3.16 µM, first compound 10 µM
  viability, T/C: 12.9%
[17]
  viability, T/C: 133%
[18]
  viability, T/C: 116%
[19]
  viability, T/C: 118%
[20]
  viability, T/C: 88.5%
Second compound 10 µM, first compound 3.16 µM
  viability, T/C: 56.6%
Second compound 10 µM, first compound 10 µM
  viability, T/C: 12.7%

## CNC(C)C(=O)NC1CN(S(=O)(=O)c2cccc(S(=O)(=O)N3CCC4CCC(C(=O)NC(c5ccccc5)c5ccccc5)N4C(=O)C(NC(=O)C(C)NC)C3)c2)CCC2CCC(C(=O)NC(c3ccccc3)c3ccccc3)N2C1=O (stereo not given) + Cc1c(S(C)(=O)=O)c(-c2cc(F)cc(N3CCN(c4ccc(NS(=O)(=O)c5ccc(NC(CCN6CCC(C(=O)OCCCP(=O)(O)O)CC6)CSc6ccccc6)c(S(=O)(=O)C(F)(F)F)c5)cc4)CC3)c2)c(-c2ccc(Cl)cc2)n1C(C)C
Second compound 0.1 µM
  IC50: > 1 µM
Second compound 0.316 µM
  IC50: > 1 µM
Second compound 1 µM
  IC50: > 1 µM
Second compound 3.16 µM
  IC50: > 1 µM
Second compound 10 µM
  IC50: > 1 µM
Second compound 0.1 µM, first compound 0.00316 µM
  viability, T/C: 97.7%
Second compound 0.1 µM, first compound 0.01 µM
  viability, T/C: 91.1%
[1]
  viability, T/C: 83.2%
[2]
  viability, T/C: 79.3%
[3]
  viability, T/C: 85.2%
[4]
  viability, T/C: 76.1%
Second compound 0.316 µM, first compound 0.00316 µM
  viability, T/C: 96.2%
Second compound 0.316 µM, first compound 0.01 µM
  viability, T/C: 87.7%
[5]
  viability, T/C: 78%
[6]
  viability, T/C: 77.8%
[7]
  viability, T/C: 74.8%
[8]
  viability, T/C: 81%
Second compound 1 µM, first compound 0.00316 µM
  viability, T/C: 90.7%
Second compound 1 µM, first compound 0.01 µM
  viability, T/C: 86.9%
[9]
  viability, T/C: 78.8%
[10]
  viability, T/C: 75.2%
[11]
  viability, T/C: 67.1%
[12]
  viability, T/C: 75%
Second compound 3.16 µM, first compound 0.00316 µM
  viability, T/C: 89.1%
Second compound 3.16 µM, first compound 0.01 µM
  viability, T/C: 94.3%
[13]
  viability, T/C: 83%
[14]
  viability, T/C: 68.1%
[15]
  viability, T/C: 71.5%
[16]
  viability, T/C: 81.6%
Second compound 10 µM, first compound 0.00316 µM
  viability, T/C: 119%
Second compound 10 µM, first compound 0.01 µM
  viability, T/C: 130%
[17]
  viability, T/C: 121%
[18]
  viability, T/C: 99.8%
[19]
  viability, T/C: 108%
[20]
  viability, T/C: 96.8%

## Cc1nc(N2CCC3(CC2)COC(C)C3N)c(CO)nc1Sc1ccnc(N)c1Cl (stereo not given) + Cc1c(S(C)(=O)=O)c(-c2cc(F)cc(N3CCN(c4ccc(NS(=O)(=O)c5ccc(NC(CCN6CCC(C(=O)OCCCP(=O)(O)O)CC6)CSc6ccccc6)c(S(=O)(=O)C(F)(F)F)c5)cc4)CC3)c2)c(-c2ccc(Cl)cc2)n1C(C)C
Second compound 0.1 µM
  IC50: 1.9 µM
Second compound 0.316 µM
  IC50: 1.13 µM
Second compound 1 µM
  IC50: 1.19 µM
Second compound 3.16 µM
  IC50: 0.782 µM
Second compound 10 µM
  IC50: 2.85 µM
Second compound 0.1 µM, first compound 0.00949 µM
  viability, T/C: 96.4%
Second compound 0.1 µM, first compound 0.03 µM
  viability, T/C: 83.9%
Second compound 0.1 µM, first compound 0.0949 µM
  viability, T/C: 81.7%
Second compound 0.1 µM, first compound 0.3 µM
  viability, T/C: 62.8%
Second compound 0.1 µM, first compound 0.949 µM
  viability, T/C: 55.7%
Second compound 0.1 µM, first compound 3 µM
  viability, T/C: 46.9%
Second compound 0.316 µM, first compound 0.00949 µM
  viability, T/C: 95.8%
Second compound 0.316 µM, first compound 0.03 µM
  viability, T/C: 85.1%
Second compound 0.316 µM, first compound 0.0949 µM
  viability, T/C: 73.9%
Second compound 0.316 µM, first compound 0.3 µM
  viability, T/C: 55.6%
Second compound 0.316 µM, first compound 0.949 µM
  viability, T/C: 55.2%
Second compound 0.316 µM, first compound 3 µM
  viability, T/C: 42.9%
Second compound 1 µM, first compound 0.00949 µM
  viability, T/C: 78.1%
Second compound 1 µM, first compound 0.03 µM
  viability, T/C: 76.9%
Second compound 1 µM, first compound 0.0949 µM
  viability, T/C: 72.4%
Second compound 1 µM, first compound 0.3 µM
  viability, T/C: 68.4%
Second compound 1 µM, first compound 0.949 µM
  viability, T/C: 51.1%
Second compound 1 µM, first compound 3 µM
  viability, T/C: 42.6%
Second compound 3.16 µM, first compound 0.00949 µM
  viability, T/C: 87.7%
Second compound 3.16 µM, first compound 0.03 µM
  viability, T/C: 85%
Second compound 3.16 µM, first compound 0.0949 µM
  viability, T/C: 72.5%
Second compound 3.16 µM, first compound 0.3 µM
  viability, T/C: 59.9%
Second compound 3.16 µM, first compound 0.949 µM
  viability, T/C: 45.6%
Second compound 3.16 µM, first compound 3 µM
  viability, T/C: 46.9%
Second compound 10 µM, first compound 0.00949 µM
  viability, T/C: 105%
Second compound 10 µM, first compound 0.03 µM
  viability, T/C: 94%
Second compound 10 µM, first compound 0.0949 µM
  viability, T/C: 88.6%
Second compound 10 µM, first compound 0.3 µM
  viability, T/C: 87.3%
Second compound 10 µM, first compound 0.949 µM
  viability, T/C: 64.8%
Second compound 10 µM, first compound 3 µM
  viability, T/C: 49%
